The text below walks through data of patent US9060997B2, “Antifolate compounds for the treatment of melanoma” (UNIVERSIDAD DE MURCIA, priority 2007, dated 2015).

For one test, the system named is H1264 cells. Description: MTT cell proliferation assay, H1264. It counts as cell-based. The note with it: Homo sapiens, 144 h; H1264, 6 days of treatment. The protocol:
Four human cancer cells lines (SkMel-28, MCF7, H1264 and Caco-2) were obtained from the American Type Tissue Culture Collection (ATCC) and were maintained in appropriate culture mediums supplemented with 10% fetal calf serum (FCS) and antibiotics, under standard tissue culture conditions (e.g. modified Eagle's medium (MEM) containing 1 mM sodium pyruvate and 10% fetal bovine serum (FES) under 5% CO2/95% air atmosphere.). Cell injury was evaluated by a colorimetric assay for mitochondrial function using the 3-(4,5-dimethylthiazolyl-2)-2,5-diphenyltetrazolium bromide (MTT) cell proliferation assay. For this assay cells were plated in a 96-well plate at a density of 1000 cells/well and grown until they reached 50-60% confluence. Human epidermal melanocytes (HeM) were supplied by Gentaur and were cultured in HAM-F10 medium supplemented with 10% FCS, antibiotics and the human melanocyte growth supplement (Gentaur).
On the technique in general: Tetrazolium assays rely on reduction of a dye to a coloured formazan, in cell work by metabolically active cells.

In the next test the test system is SkMel-28 cells. Description: Microscopy of melanosome melanin content. It counts as cell-based, human. The note with it: treated SkMel-28 versus untreated. The protocol: Confluent monolayers of SkMel-28 were harvested with a mixture of 0.05% trypsin, 0.53 mmol/L EDTA and washed once in 0.25 mol/L sucrose by centrifugation at 700×g for 5 min at 4° C. They were then homogenized on ice using 20 strokes of an ice-cold Dounce homogenizer and centrifuged at 700×g for 10 min at 4° C. The resultant postnuclear supernatant was centrifuged at 17,000×g for 15 min at 4° C. to yield a melanosome-enriched granular fraction (17). This fraction was resuspended in 0.5-2 ml of ice-cold 0.25 mol/L sucrose, 10 mmol/L HEPES, pH 7.0 and fixed for 1 h at room temperature in 2% glutaraldehyde, 2% paraformaldehyde in 0.1 mol/L sodium cacodylate buffer, pH 7.3. The fixative was then removed and the samples stored in PBS containing 4% sucrose at 4° C. Samples were subsequently dehydrated with graded alcohols and embedded in epoxy resin. This section were stained with uranyl acetate and lead citrate and examined with a Zeiss EM10 electron microscope.

The next test concerns the target T1, rHDHFR (Homo sapiens, UniProt P00374).
T1 construct: purchased Sigma
T1 sequence (P00374 1-187): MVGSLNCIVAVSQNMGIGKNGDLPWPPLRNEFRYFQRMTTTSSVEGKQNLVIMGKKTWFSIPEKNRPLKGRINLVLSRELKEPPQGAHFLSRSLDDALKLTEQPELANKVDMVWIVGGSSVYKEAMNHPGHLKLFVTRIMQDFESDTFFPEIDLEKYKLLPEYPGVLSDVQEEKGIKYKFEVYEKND
Description: rHDHFR binding: fluorescence titration and stopped-flow fluorescence. The protocol:
The experiments were carried out in a buffer containing 2-(N-morpholino)ethanesulfonic acid (Mes, 0.025 M), sodium acetate (0.025 M), tris-(hydroxymethyl)aminomethane (Tris 0.05 M), and NaCl (0.1 M) at pH 7.4 and 25° C. in the presence of QM and rHDHFR (0.5 μM).
Stopped-flow fluorescence experiments were carried out at pH 7.4 and 25° C. using an enzyme concentration of 0.25 μM. The reaction of rHDHFR with inhibitors was observed under pseudo-first order conditions by fluorescence at 340 nm (excitation at 290 nm). The data points s are the means of at least 3 (normally 5) repeat observations±SD. […] Aliquots (20 μl) of the incubation mixture was then diluted 50-fold into a reaction mixture containing the buffer, NADPH (100 μM), and DHF (10 μM) to give a final enzyme concentration of 1.5 nM.
The activity of rHDHFR was determined at 25° C. by following the decrease in the absorbance of NADPH and DHF at 340 nm (ε=11800 M-1 cm−1) (Stone and Morrison, 1986). Progress curves were obtained under ordered conditions ([NADPH]>>[DHF]). rHDHFR inhibition constants were calculated as described by Navarro-Perán et al., 2005b. The dissociation constant for the binding of inhibitors to free rHDHFR was determined at 25° C. by fluorescence titration in an automatic-scanning Perkin-Elmer LS50B spectrofluorimeter. Fluorescence emission spectra were recorded when rHDHFR fluorescence was excited at 290 nm. Stopped-flow fluorescence experiments were carried out using an Applied Photophysics Ltd. Pi-Star 180 spectrometer with a stopped-flow unit at 25° C.

The next test has as its system Caspase-3 mRNA. Kind of test: Caspase-3 mRNA expression (real-time PCR). It counts as cell-based, human. The settings on record: SkMel-28, 50 μM, 7 days. The protocol:
(§1) Histograms compare the estimated relative levels of the mRNA with respect to that of β-actin. Values represent the number of copies of mRNA per each 1×10^6 copies of β-actin.
(§2) cDNA samples (1 μL) were used for real-time PCR in a total volume of 20 μL using SYBR Green Reagent (Applied Biosystems) and specific primers on a 7500 Real Time PCR System of Applied Biosystems. The PCR amplification cycles included denaturation 95° C., 15 min; to activate HotStar Taq DNA polymerase and to minimize primer-dimer contribution), and amplification [over 40-50 cycles including denaturation (94° C.; 30 s), annealing (55° C.; 30 s), and extension (72° C.; 1 min)]. All PCR reactions were performed in triplicate and from at least two independent experiments. Non-RT control and negative control samples (without template) were processed in the same manner. The specificity of the amplification was verified by melting curve analysis for all samples, and occasionally by agarosa gel electrophoresis. Amplification of target gene sequences were compared against serial dilutions of know quantities of their purified cDNA fragments, and normalized to the abundance of the house-keeping gene β-actin.
(In qPCR the cycle at which signal appears reflects the starting amount.)

Test [1] relates to γ-glutamylcysteine synthetase (GCS) mRNA. Kind of test: GCS mRNA determination in SkMel-28. The note with it: SkMel-28 treated with TMECG. It counts as cell-based, human. The protocol: as §1, §2

In general, IC50 refers to the concentration needed to halve the response being measured. Low readings indicate greater potency, high ones weaker potency. A word on the koff: it is a measure of how fast the partners let go of each other. The term Ki denotes a measure of affinity in units of concentration, obtained from inhibition or displacement. A high value points to weaker binding. As usually defined, the kon is the rate constant with which the complex forms.

As to `COc1cc(C(=O)O[C@@H]2Cc3c(O)cc(O)cc3O[C@@H]2c2ccc(O)c(O)c2)cc(OC)c1OC` [TMECG, 3-O-(3,4,5-trimethoxybenzoyl)-(−)-epicatechin], the IC50 in the test with H1264 cells is 18 µM. The melanosome melanin content result in the test on SkMel-28 cells is “much less melanin content”. The dissociation rate constant (koff) at rHDHFR (calculated from KI=koff/kon, read-out: koff) is 0.29 s⁻¹. Moreover, the affinity at rHDHFR (dissociation constant, free rHDHFR, fluorescence titration, pH 7.4, 25° C.) corresponds to a Ki of 2.1 µM. The kon at rHDHFR (stopped-flow fluorescence, pH 7.4, 25° C., read-out: kon) is 140000 M⁻¹ s⁻¹. For the same compound, in the test on Caspase-3 mRNA, the “Caspase-3 mRNA, higher than in HeM or untreated SkMel-28” value is reported as “around 30 times”. Moreover, the “GCS mRNA, mean value” in test [1] is 26300 copies per million of copies of β-actin mRNA.
